Assay results from patent US12011421B2, “Curcuphenol compounds for increasing MHC-I expression” (Cava Healthcare Inc., priority 2013, dated 2024).

Tests used:
[1] = system: MHC-I; assay: MHC-I expression in TC1/A9 murine lung tumor cells; assay type: cell-based; details: FIG. 11A
Method: (§1) Curcuphenol and four curcuphenol analogs (see FIG. 10) were synthesized and tested for the ability to increase MHC-I expression in TC1/A9 murine lung tumor cells. Toxicity was also measured by propidium iodide (PI) exclusion.

[2] = system: TC1/A9 murine lung tumor cells; assay: Cell toxicity in A9 cells by PI exclusion and intact cell number; assay type: cell-based; details: FIG. 11B
Method: as §1

Structure (SMILES) | MHC-I expression relative to controls [1] | toxicity by propidium iodide (PI) exclusion and intact cell number [2]
CC(C)=CCC[C@H](C)c1ccc(C)cc1O (stereo in doubt) [curcuphenol, phenol,2-(1,5-dimethyl-4-hexenyl)-5-methyl-, (S)—] | significantly increasing MHC-I expression | acceptable levels of toxicity
CC(C)=CCCCc1ccc(C)cc1O [PC-02/113] | significantly increasing MHC-I expression | acceptable levels of toxicity
